This passage reports IC50 results from patent US20100261719A1, “CHEMICAL COMPOUNDS” (priority 2007, published 2010).

Escherichia coli DNA gyrase A/B tetramer, sequence (P0AES4 whole entry, one chain of several): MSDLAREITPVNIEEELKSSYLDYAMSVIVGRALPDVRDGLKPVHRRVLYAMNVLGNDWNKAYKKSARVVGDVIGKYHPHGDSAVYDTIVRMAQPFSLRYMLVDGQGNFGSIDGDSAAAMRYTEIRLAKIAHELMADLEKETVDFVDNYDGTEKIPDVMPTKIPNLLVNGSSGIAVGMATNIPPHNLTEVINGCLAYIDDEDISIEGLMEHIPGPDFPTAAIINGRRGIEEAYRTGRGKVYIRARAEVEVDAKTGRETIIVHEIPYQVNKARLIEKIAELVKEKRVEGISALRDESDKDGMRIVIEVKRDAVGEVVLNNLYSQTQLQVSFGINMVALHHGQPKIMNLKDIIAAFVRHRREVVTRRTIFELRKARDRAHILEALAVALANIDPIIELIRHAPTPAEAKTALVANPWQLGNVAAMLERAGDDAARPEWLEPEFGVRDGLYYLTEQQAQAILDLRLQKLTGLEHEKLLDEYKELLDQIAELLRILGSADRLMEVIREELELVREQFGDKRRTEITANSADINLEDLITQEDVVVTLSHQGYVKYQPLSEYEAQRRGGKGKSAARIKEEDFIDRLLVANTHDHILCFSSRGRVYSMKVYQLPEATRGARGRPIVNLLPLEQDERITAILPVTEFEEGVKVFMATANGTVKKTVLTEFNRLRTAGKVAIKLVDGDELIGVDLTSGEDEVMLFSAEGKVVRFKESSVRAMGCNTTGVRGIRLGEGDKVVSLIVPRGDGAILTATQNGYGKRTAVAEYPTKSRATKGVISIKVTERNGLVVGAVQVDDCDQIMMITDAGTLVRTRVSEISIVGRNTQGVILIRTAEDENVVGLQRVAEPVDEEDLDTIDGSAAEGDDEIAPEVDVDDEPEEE

One assay has as its target Escherichia coli DNA gyrase A/B tetramer (Escherichia coli, UniProt P0AES4+P0AES6). Kind of assay: DNA gyrase supercoiling activity fluorescence polarisation assay.
Conditions: not given
The assay is classed as biochemical. Here is the method: In a black, 384-well polystyrene assay plate, 30 microliters/well of 5 nM Escherichia coli DNA gyrase A/B tetramer and 130 micrograms/ml of topologically relaxed plasmid containing the triplex-forming sequence […] in an assay buffer consisting of 35 mM Tris-HCl (pH 7.5), 24 mM KCl, 4 mM MgCl2, 2 mM dithiothreitol, 1.8 mM spermidine, 5% (v/v) glycerol, 200 nM bovine serum albumin, 0.8% dimethylsulfoxide, and 0.3 mM ATP may be incubated at ambient temperature for (typically 30 minutes) in the absence or presence of 5-10 different concentrations of test compound. The supercoiling reactions may be quenched by the addition of 10 microliters/well of 40 nM oligodeoxynucleotide probe in 3× triplex-forming buffer consisting of 150 mM NaCl, and 150 mM sodium acetate at pH 3.5. The oligodeoxynucleotide probe may be 5′-BODIPY-FL-labeled TTCTTCTTC. After 60 minutes, the fluorescence anisotropy of the BODIPY-FL may be measured in a Tecan Ultra plate reader, using 485 nm excitation and 535 nm emission filters equipped with polarizers. The IC50 may be determined by nonliner regression using two control reactions. The first contains no test compound but 0.8% DMSO (100% activity) while the second control reaction contains 5 uM Ciprofloxacin and 0.8% DMSO (0% activity).
When tested in an in-vitro assay based on the DNA gyrase supercoiling activity fluorescence polarisation assay described above, the E. coli DNA gyrase supercoiling IC50 assay inhibitory activity of the following Examples was measured at the indicated IC50.
For orientation: Polarisation of emitted light reports the rotation of a fluorescent probe.
`C/C(=N\NC(=O)C1CC1)c1cc2c(c(F)c1F)N1C[C@@H](C)O[C@@H](C)[C@@H]1C1(C2)C(=O)NC(=O)NC1=O` (relative stereo) [Example 56, N′-{(1E)-1-[(2R,4S,4aS)-rel-9,10-Difluoro-2,4-dimethyl-2′,4′,6′-trioxo-1,1′,2,3′,4,4′,4a,6′-octahydro-2′H,6H-spiro[1,4-oxazino[4,3-a]quinoline-5,5′-pyrimidin]-8-yl]ethylidene}cyclopropanecarbohydrazide] came in with an IC50 of 1.87 µM.
Same read-out and setting: next, `CC(=O)N/N=C(\C)c1cc2c(c(F)c1F)N1C[C@@H](C)O[C@@H](C)[C@@H]1C1(C2)C(=O)NC(=O)NC1=O` (relative stereo) [Example 48, N′-{(1E)-1-[(2R,4S,4aS)-rel-9,10-Difluoro-2,4-dimethyl-2′,4′,6′-trioxo-1,1′,2,3′,4,4′,4a,6′-octahydro-2′H,6H-spiro[1,4-oxazino[4,3-a]quinoline-5,5′-pyrimidin]-8-yl]ethylidene}acetohydrazide]: 1.3 µM; `C[C@@H]1CN2c3ccc(NC(=O)N4CCCCC4)cc3CC3(C(=O)NC(=O)NC3=O)[C@H]2[C@H](C)O1` (relative stereo) [Example 74, N-[(2R,4S,4aS)-rel-2,4-Dimethyl-2′,4′,6′-trioxo-1,1′,2,3′,4,4′,4a,6′-octahydro-2′H,6H-spiro[1,4-oxazino[4,3-a]quinoline-5,5′-pyrimidin]-8-yl]piperidine-1-carboxamide]: 3.51 µM.
The same measure, in the same setting: next, `C[C@@H]1CN2c3c(cc(C(=O)NC4CCNCC4)c(F)c3F)CC3(C(=O)NC(=O)NC3=O)[C@H]2[C@H](C)O1` (relative stereo) [Example 71, (2R,4S,4aS)-rel-9,10-Difluoro-2,4-dimethyl-2′,4′,6′-trioxo-N-(piperidin-4-yl)-1,1′,2,3′,4,4′,4a,6′-octahydro-2′H,6H-spiro[1,4-oxazino[4,3-a]quinoline-5 ,5′-pyrimidine]-8-carboxamide]: 5.97 µM; `COC(=O)N/N=C(\C)c1cc2c(c(F)c1F)N1C[C@@H](C)O[C@@H](C)[C@@H]1C1(C2)C(=O)NC(=O)NC1=O` (racemic) [Example 49, Methyl (2E)-2-{1-[(2R,4S,4aS)-rel-9,10-difluoro-2,4-dimethyl-2′,4′6′-trioxo-1,1′,2,3′,4,4′,4a,6′-octahydro-2′H,6H-spiro[1,4-oxazino[4,3-a]quinoline-5,5′-pyrimidin]-8-yl]ethylidene}hydrazinecarboxylate]: 0.45 µM; `C[C@@H]1CN2c3c(cc(/C=N/N4CCCC4)c(F)c3F)CC3(C(=O)NC(=O)NC3=O)[C@H]2[C@H](C)O1` (relative stereo) [Example 21, (2R,4S,4 aS)-rel-9,10-Difluoro-2,4-dimethyl-8-[(E)-(pyrrolidin-1-ylimino)methyl]-1,2,4,4a-tetrahydro-2′H,6H-spiro[1,4-oxazino[4,3-a]quinoline-5,5′-pyrimidine]-2′,4′,6′(1′H,3′H)-trione]: 2.25 µM.
With `C[C@@H]1CN2c3c(cc(C#Cc4cnccn4)c(F)c3F)CC3(C(=O)NC(=O)NC3=O)[C@H]2[C@H](C)O1` [Example 79, (2R,4S,4aS)-9,10-Difluoro-2,4-dimethyl-8-(pyrazin-2-ylethynyl)-2,4,4a,6-tetrahydro-1H,1′H-spiro[[1,4]oxazino[4,3-a]quinoline-5,5′-pyrimidine]-2′,4′,6′(3′H)-trione], the midpoint of inhibition, the IC50, lay at 0.4 µM.
The compound `C/C(=N\NC(=O)CC#N)c1cc2c(c(F)c1F)N1C[C@@H](C)O[C@@H](C)[C@@H]1C1(C2)C(=O)NC(=O)NC1=O` (relative stereo) [Example 53, 2-Cyano-N′-{(1E)-1-[(2R,4S,4aS)-rel-9,10-difluoro-2,4-dimethyl-2′,4′,6′-trioxo-1,1′,2,3′,4,4′,4a,6′-octahydro-2′H,6H-spiro[1,4-oxazino[4,3-a]quinoline-5,5′-pyrimidin]-8-yl]ethylidene}acetohydrazide] displayed an IC50 of 1.64 µM.
Consider `C[C@@H]1CN2c3c(cc(C(=O)NC4CCN(c5ccccn5)CC4)c(F)c3F)CC3(C(=O)NC(=O)NC3=O)[C@H]2[C@H](C)O1` (relative stereo) [Example 68, (2R,4S,4aS)-rel-9,10-Difluoro-2,4-dimethyl-2′,4′,6′-trioxo-N-[1-(pyridin-2-yl)piperidin-4-yl]-1,1′,2,3′,4,4′,4a,6′-octahydro-2′H,6H-spiro[1,4-oxazino[4,3-a]quinoline-5,5′-pyrimidine]-8-carboxamide], for which the IC50 is 4.15 µM.
In turn, `C/C(=N\NC(=O)Nc1ccccc1)c1cc2c(c(F)c1F)N1C[C@@H](C)O[C@@H](C)[C@@H]1C1(C2)C(=O)NC(=O)NC1=O` (relative stereo) [Example 51, (2E)-2-{1-[(2R,4S,4aS)-rel-9,10-Difluoro-2,4-dimethyl-2′,4′,6′-trioxo-1,1′,2,3′,4,4′,4a,6′-octahydro-2′H,6H-spiro[1,4-oxazino[4,3-a]quinoline-5,5′-pyrimidin]-8-yl]ethylidene}-N-phenylhydrazinecarboxamide] returned an IC50 of 5.5 µM.
`Cc1nnc(C#Cc2cc3c(c(F)c2F)N2C[C@H](C)O[C@H](C)[C@H]2C2(C3)C(=O)NC(=O)NC2=O)s1` (relative stereo) [Example 5, (2S,4R,4aR)-rel-9,10-Difluoro-2,4-dimethyl-8-[(5-methyl-1,3,4-thiadiazol-2-yl)ethynyl]-1,2,4,4a-tetrahydro-2′H,6H-spiro[1,4-oxazino[4,3-a]quinoline-5,5′-pyrimidine]-2′,4′,6′(1′H,3′H)-trione] returned an IC50 of 1.88 µM.
In the case of `C[C@@H]1CN2c3c(cc(C(=O)NC4CCN(C(=O)OC(C)(C)C)CC4)c(F)c3F)CC3(C(=O)NC(=O)NC3=O)[C@H]2[C@H](C)O1` (relative stereo) [Example 67, tert-Butyl 4-({[(2R,4S,4aS)-rel-9,10-difluoro-2,4-dimethyl-2′,4′,6′-trioxo-1,1′,2,3′,4,4′,4a,6′-octahydro-2′H,6H-spiro[1,4-oxazino[4,3-a]quinoline-5,5′-pyrimidin]-8-yl]carbonyl}amino)piperidine-1-carboxylate], the 50% inhibitory concentration (IC50) worked out at 12 µM.
In the case of `C[C@@H]1CN2c3cc(F)c(C#Cc4cccs4)cc3CC3(C(=O)NC(=O)NC3=O)[C@H]2[C@H](C)O1` (relative stereo) [Example 28, (2R,4S,4aS)-rel-9-Fluoro-2,4-dimethyl-8-(thiophen-2-ylethynyl)-1,2,4,4a-tetrahydro-2′H,6H-spiro[1,4-oxazino[4,3-a]quinoline-5,5′-pyrimidine]-2′,4′,6′(1′H,3′H)-trione], 1.11 µM corresponded to half-maximal inhibition (IC50).
Consider `C[C@@H]1CN2c3c(F)cc(C#Cc4cc5ccccc5s4)cc3CC3(C(=O)NC(=O)NC3=O)[C@H]2[C@H](C)O1` (racemic) [Example 41, (2R,4S,4aS)-rel-8-(1-Benzothiophen-2-ylethynyl)-10-fluoro-2,4-dimethyl-1,2,4,4a-tetrahydro-2′H,6H-spiro[1,4-oxazino[4,3-a]quinoline-5,5′-pyrimidine]-2′,4′,6′(1′H,3′H)-trione], for which the IC50 came out at 7.16 µM.
The compound `CNC(=O)Nc1ccc2c(c1)CC1(C(=O)NC(=O)NC1=O)[C@H]1[C@H](C)O[C@H](C)CN21` (relative stereo) [Example 78, 1-[(2R,4S,4aS)-rel-2,4-Dimethyl-2′,4′,6′-trioxo-1,1′,2,3′,4,4′,4a,6′-octahydro-2′H,6H-spiro[1,4-oxazino[4,3-a]quinoline-5,5′-pyrimidin]-8-yl]-3-methylurea] registered an IC50 of 8.65 µM.
The compound `C/C(=N\NC(=O)OC(C)(C)C)c1cc2c(c(F)c1F)N1C[C@@H](C)O[C@@H](C)[C@@H]1C1(C2)C(=O)NC(=O)NC1=O` (relative stereo) [Example 50, tert-Butyl (2E)-2-{1-[(2R,4S,4aS)-rel-9,10-difluoro-2,4-dimethyl-2′,4′,6′-trioxo-1,1′,2,3′,4,4′,4a,6′-octahydro-2′H,6H-spiro[1,4-oxazino[4,3-a]quinoline-5,5′-pyrimidin]-8-yl]ethylidene}hydrazinecarboxylate] came in with an IC50 of 2.36 µM.
The compound `C[C@H]1CN2c3c(cc(C#Cc4nccs4)c(F)c3F)CC3(C(=O)NC(=O)NC3=O)[C@@H]2[C@@H](C)O1` (relative stereo) [Example 8, (2S,4R,4aR)-rel-9,10-Difluoro-2,4-dimethyl-8-(1,3-thiazol-2-ylethynyl)-1,2,4,4a-tetrahydro-2′H,6H-spiro[1,4-oxazino[4,3-a]quinoline-5,5′-pyrimidine]-2′,4′,6′(1′H,3′H)-trione] registered an IC50 of 1.29 µM.
As to `C[C@@H]1CN2c3c(cc(C(=O)NC4CCNC4)c(F)c3F)CC3(C(=O)NC(=O)NC3=O)[C@H]2[C@H](C)O1` (relative stereo) [Example 70, (2R,4S,4aS)-rel-9,10-Difluoro-2,4-dimethyl-2′,4′,6′-trioxo-N-(pyrrolidin-3-yl)-1,1′,2,3′,4,4′,4a,6′-octahydro-2′H,6H-spiro[1,4-oxazino[4,3-a]quinoline-5,5′-pyrimidine]-8-carboxamide], the IC50 came out at 2.91 µM.

The same assay, now with this note: 5 nM enzyme, 0.3 mM ATP, relaxed plasmid, fluorescence anisotropy readout; read-out: E. coli DNA gyrase supercoiling IC50.
For the compound `Cc1nnc(C#Cc2cc(F)c3c(c2)C(=O)C2(CNC(=O)NC2=O)[C@H]2[C@H](C)O[C@H](C)CN32)s1` (relative stereo) [Example 37, (2R,4S,4aS)-rel-10-Fluoro-2,4-dimethyl-8-[(5-methyl-1,3,4-thiadiazol-2-yl)ethynyl]-1,2,4,4a-tetrahydro-2′H,6H-spiro[1,4-oxazino[4,3-a]quinoline-5,5′-pyrimidine]-2′,4′,6(1′H,3′H)-trione], the IC50 stood at 0.94 µM.

For orientation: IC50 means the concentration that gives 50% inhibition.
